The target in one experiment is T1, recombinant BRD4 BD1 (Homo sapiens, UniProt O60885).
T1 construct: recombinant BRD4 BD1 and BRD4 BD2 proteins
Put plainly: Competitive fluorescence-polarization (FP) binding assay, BRD4 BD1. The note with it: FAM labeled probe 1.5 nM, protein 10 nM, pH 6.5. As to the method: (§1) Fluorescence Polarization (FP) competitive binding studies were carried out using a FAM labeled fluorescent probe (ZBA248 or BRD-1F) to determine binding affinities of representative Compounds of the Disclosure for recombinant BRD4 BD1 and BRD4 BD2 proteins. For example, equilibrium dissociation constants (Kd) values of ZBA248 to these six proteins were determined from protein saturation experiments by monitoring the total fluorescence polarization of mixtures composed with the fluorescent probe at a fixed concentration and proteins with increasing concentrations up to full saturation. Serial dilutions of testing protein were mixed with ZBA248 to a final volume of 200 μl in the assay buffer. In order to achieve large dynamic rages, particularly for BD1 bromodomains, 100 mM phosphate buffer (pH=6.5, 0.01% Triton X-100 (Sigma, 282103) being added right before assays) was used as the assay buffer. Final ZBA248 concentration was 1.5 nM for all proteins. Plates were incubated at room temperature for 30 minutes with gentle shaking to assure equilibrium. FP values in millipolarization units (mP) were measured using the Infinite M-1000 plate reader (Tecan U.S., Research Triangle Park, N.C.) in Microfluor 1 96-well, black, round-bottom plates (Thermo Scientific, Waltham, Mass.) at an excitation wavelength of 485 nm and an emission wavelength of 530 nm. Kd values of ZBA248 were calculated by fitting the sigmoidal dose-dependent FP increases as a function of protein concentrations using Graphpad Prism 6.0 software (Graphpad Software, San Diego, Calif.).
(§2) The IC50 and Ki values of representative Compounds of the Disclosure were determined in a competitive binding experiment as described above. Mixtures of 10 μl of the tested compounds in assay buffer with 40% Ethylene Glycol and 190 μl of preincubated protein/probe complex solution in the assay buffer (100 mM potassium phosphate, pH 6.5, 0.01% Triton X-100) were added into assay plates which were incubated at room temperature for 30 minutes with gentle shaking. Final concentrations of proteins were 10 and 6 nM in assays for BD1 and BD2 of BRD4, respectively. Final probe concentration is 1.5 nM in all assays. Negative controls containing protein/probe complex only (equivalent to 0% inhibition), and positive controls containing only free probes (equivalent to 100% inhibition), were included in each assay plate. FP values were measured as described above. IC50 values were determined by nonlinear regression fitting of the competition curves. Instead of being calculated from IC50 values as described before, Ki values of competitive inhibitors were obtained directly by nonlinear regression fitting as well, based upon the Kd values of the probe to different proteins, and concentrations of the proteins and probes in the competitive assays (Wang, FEBS Lett. 360; 111 (1995); Zhang et al., Analytical Biochemistry, 331; 138 (2004)).
(§3) Binding affinities of representative Compounds of the Disclosure to BRD4 BD1 and BRD4 BD2 proteins in competitive, fluorescence-polarization assays are presented in Table 2.

For another experiment, the target named is T2, recombinant BRD4 BD2 (Homo sapiens, UniProt O60885).
T2 construct: recombinant BRD4 BD1 and BRD4 BD2 proteins
Put plainly: Competitive fluorescence-polarization (FP) binding assay, BRD4 BD2. The note with it: FAM labeled probe 1.5 nM, protein 6 nM, pH 6.5. As to the method: as §1, §2, §3

In another experiment the test system is LNCaP cells. Put plainly: Cell growth inhibition, 4-day proliferation assay, LNCaP. The note with it: Homo sapiens, 96 h, prostate cancer cell line, 4 days treatment. It is filed as cell-based. How it is done:
(§4) The effect of representative Compounds of the Disclosure on cell viability was determined in a 4-day proliferation assay. Cells were maintained in the appropriate culture medium with 10% FBS at 37° C. and an atmosphere of 5% CO2. All the cell lines were used within three months of thawing fresh vials.
(§5) Cells were seeded in 96-well flat bottom (Corning COSTAR, Corning, NY, cat#3595) or white opaque cell culture plates (BD Falcon, cat#353296) at a density of 3,000-10,000 cells/well in 75 μl of culture medium. Compounds were serially diluted in the appropriate medium, and 75 μl of the diluted compounds were added to the appropriate wells of the cell plate. After the addition of compounds, the cells were incubated at 37° C. in an atmosphere of 5% CO2 for 4 days. Cell viability was determined using the CellTiter-Glo® Luminescent Cell Viability Assay Kit (Promega, Madison, Wis.) for RS4-11 and MV4-11 cells and WST (2-(2-methoxy-4-nitrophenyl)-3-(4-nitrophenyl)-5-(2,4-disulfophenyl)-2H-tetrazolium, monosodium salt) Cell Counting-8 Kit (Dojindo Molecular Technologies, Inc., Rockville, Md.) for MDA-MB-231 cells according to the manufacturers' instructions.
(§6) Cell growth inhibition of representative Compounds of the Disclosure in representative breast cancer (MDA-MB-231), acute leukemia (MV4-11), and prostate cancer cell lines (LNCaP), as determined by a WST assay, are presented in Table 3. Cells were treated with each inhibitor for 4 days.

Another experiment relates to MDA-MB-231 cells. Put plainly: Cell growth inhibition, 4-day proliferation assay (WST), MDA-MB-231. The note with it: Homo sapiens, MDA-MB-231, 96 h, breast cancer cell line, 4 days treatment. It is filed as cell-based. How it is done:
as §4, §5
For WST assay (MDA-MB-231 cells), WST-8 reagent was added to each well at a final concentration of 10% (v/v), and then the plates were incubated at 37° C. for 1-2 hours for color development. The absorbance was measured at 450 nm using a SPECTRAmax PLUS plate reader (Molecular Devices, Sunnyvale, Calif.). The readings were normalized to the DMSO-treated cells and the half maximal inhibitory concentration (IC50) was calculated by nonlinear regression (four parameters sigmoid fitted with variable slope, least squares fit, and no constraint) analysis using the GraphPad Prism 5 software (GraphPad Software, La Jolla, Calif.).
as §6

The next experiment has as its system MV4-11 cells. As to the kind of experiment: Cell growth inhibition, 4-day proliferation assay, MV4-11. Conditions: Homo sapiens, MV4-11, 96 h, acute leukemia cell line, 4 days treatment. It is filed as cell-based. How it is done: as §4, §5
For CellTiter-Glo assay (RS4-11 and MV4-11 cells), 100 μl of CellTiter-Glo® Reagent was added to each well, and then the plates were incubated at room temperature for 10-20 minutes. The luminescent signal was measured using a Tecan Infinite M1000 multimode microplate reader (Tecan, Morrisville, N.C.). The readings were normalized to the DMSO-treated cells and the IC50 was calculated by nonlinear regression (four parameters sigmoid fitted with variable slope, least squares fit, and no constraint) analysis using the GraphPad Prism 5 software.
as §6

Consider 14 molecules from patent US10307407B2, “9H-pyrimido [4,5-B] indoles as BET bromodomain inhibitors” (THE REGENTS OF THE UNIVERSITY OF MICHIGAN, priority 2015, dated 2019).

pIC50: −log10 of the molar value.

One may read the pIC50 as −log10 of the IC50, conventionally taken in molar units.

Consider `COc1cc2c(cc1Br)[nH]c1ncnc(Nc3cc(C4CC4)nn3C)c12` [Cpd. No. 1, 7-Bromo-N-(3-cyclopropyl-1-methyl-1H-pyrazol-5-yl)-6-methoxy-9H-pyrimido[4,5-b]indol-4-amine], for which the pIC50 at recombinant BRD4 BD1 and at recombinant BRD4 BD2 was less than 6.00 in each case.
`COc1cc2c(cc1-c1c(C)noc1C)[nH]c1nc(N)nc(Nc3cc(C4CC4)nn3C(C)C)c12` [Cpd. No. 2, N4-(3-cyclopropyl-1-isopropyl-1H-pyrazol-5-yl)-7-(3,5-dimethylisoxazol-4-yl)-6-methoxy-9H-pyrimido[4,5-b]indole-2,4-diamine]: the pIC50 in the experiment on LNCaP cells was 8.52; on recombinant BRD4 BD1 it was 9.00; with MDA-MB-231 cells it was 7.34; on recombinant BRD4 BD2, 8.68.
On to `COc1cc2c(cc1-c1c(C)noc1C)[nH]c1nc(N)nc(Nc3c4c(nn3C)CCC4)c12` [Cpd. No. 3, 7-(3,5-dimethylisoxazol-4-yl)-6-methoxy-N4-(2-methyl-2,4,5,6-tetrahydrocyclopenta[c]pyrazol-3-yl)-9H-pyrimido[4,5-b]indole-2,4-diamine], for which the negative logarithm of the IC50 (pIC50) in the experiment with LNCaP cells was 7.17; on recombinant BRD4 BD1 it was 8.46; with MDA-MB-231 cells, 7.74; on recombinant BRD4 BD2 it was 8.80.
For `CCn1nc2c(c1Nc1nc(N)nc3[nH]c4cc(-c5c(C)noc5C)c(OC)cc4c13)CCC2` [Cpd. No. 4, 7-(3,5-dimethylisoxazol-4-yl)-N4-(2-ethyl-2,4,5,6-tetrahydrocyclopenta[c]pyrazol-3-yl)-6-methoxy-9H-pyrimido[4,5-b]indole-2,4-diamine] the same measures were 7.70, 9.00, 8.22 and 8.60.
Take `COCc1nc(Nc2c3c(nn2C(C)C)CCC3)c2c(n1)[nH]c1cc(-c3c(C)noc3C)c(OC)cc12` [Cpd. No. 6, 7-(3,5-dimethylisoxazol-4-yl)-N-(2-isopropyl-2,4,5,6-tetrahydrocyclopenta[c]pyrazol-3-yl)-6-methoxy-2-(methoxymethyl)-9H-pyrimido[4,5-b]indol-4-amine]: the negative logarithm of the IC50 (pIC50) on recombinant BRD4 BD1 is 8.44; in the experiment with MV4-11 cells it was 8.40; in the experiment on MDA-MB-231 cells, 8.22; at recombinant BRD4 BD2, 8.54.
For `COc1cc2c(cc1-n1c(C)nnc1C)[nH]c1ncnc(Nc3cc(C4CC4)nn3C)c12` [Cpd. No. 8, N-(3-Cyclopropyl-1-methyl-1H-pyrazol-5-yl)-7-(3,5-dimethyl-4H-1,2,4-triazol-4-yl)-6-methoxy-9H-pyrimido[4,5-b]indol-4-amine], the negative-log IC50 (pIC50) at recombinant BRD4 BD1 was 6.19; in the experiment with MDA-MB-231 cells, less than 6.00; on recombinant BRD4 BD2 it was 5.89.
For `COc1cc2c(cc1-c1c(C)noc1C)[nH]c1nc(C)nc(Nc3cc(C4CC4)nn3-c3ccncc3)c12` [Cpd. No. 9, N-(3-Cyclopropyl-1-(pyridin-4-yl)-1H-pyrazol-5-yl)-7-(3,5-dimethylisoxazol-4-yl)-6-methoxy-2-methyl-9H-pyrimido[4,5-b]indol-4-amine] the same measures were 7.65, 7.18 and 7.72.
As for `COc1cc2c(cc1-c1c(C)noc1C)[nH]c1nc(C)nc(Nc3cc(C4CC4)nn3-c3ccc(C(=O)O)cc3)c12` [Cpd. No. 10, 4-(3-Cyclopropyl-5-((7-(3,5-dimethylisoxazol-4-yl)-6-methoxy-2-methyl-9H-pyrimido[4,5-b]indol-4-yl)amino)-1H-pyrazol-1-yl)benzoic acid], the negative logarithm of the IC50 (pIC50) on recombinant BRD4 BD1 was 7.27; on recombinant BRD4 BD2 it was 7.12.
For `COc1cc2c(cc1-c1c(C)n[nH]c1C)[nH]c1ncnc(Nc3cc(C4CC4)nn3C)c12` [Cpd. No. 11, N-(3-cyclopropyl-1-methyl-1H-pyrazol-5-yl)-7-(3,5-dimethyl-1H-pyrazol-4-yl)-6-methoxy-9H-pyrimido[4,5-b]indol-4-amine] the same measures were 6.99 and 7.04.
With `COc1cc2c(cc1-c1c(C)noc1C)[nH]c1nc(C)nc(Nc3cc(C4CC4)nn3-c3cnn(C)c3)c12` [Cpd. No. 12, N-(3-Cyclopropyl-1′-methyl-1′H-[1,4′-bipyrazol]-5-yl)-7-(3,5-dimethylisoxazol-4-yl)-6-methoxy-2-methyl-9H-pyrimido[4,5-b]indol-4-amine], the figures for the pIC50 on recombinant BRD4 BD1 and at recombinant BRD4 BD2 were 7.74 and 7.92, respectively.
As to `COc1cc2c(cc1-c1c(C)noc1C)[nH]c1nc(C)nc(Nc3cc(C4CC4)n(-c4cnn(C)c4)n3)c12` [Cpd. No. 13, N-(5-Cyclopropyl-1′-methyl-1′H-[1,4′-bipyrazol]-3-yl)-7-(3,5-dimethylisoxazol-4-yl)-6-methoxy-2-methyl-9H-pyrimido[4,5-b]indol-4-amine], the negative logarithm of the IC50 (pIC50) is 7.22 at recombinant BRD4 BD1 and 7.46 at recombinant BRD4 BD2.
For `COc1cc2c(cc1-c1c(C)noc1C)[nH]c1nc(C)nc(Nc3cc(C4CC4)nn3-c3cn(C)cn3)c12` [Cpd. No. 14, N-(3-Cyclopropyl-1-(1-methyl-1H-imidazol-4-yl)-1H-pyrazol-5-yl)-7-(3,5-dimethylisoxazol-4-yl)-6-methoxy-2-methyl-9H-pyrimido[4,5-b]indol-4-amine], in that order: 6.85 and 7.71.
As for `COc1cc2c(cc1-n1c(C)nnc1C)[nH]c1nc(C)nc(Nc3cc(C4CC4)nn3C)c12` [Cpd. No. 15, N-(3-cyclopropyl-1-methyl-1H-pyrazol-5-yl)-7-(3,5-dimethyl-4H-1,2,4-triazol-4-yl)-6-methoxy-2-methyl-9H-pyrimido[4,5-b]indol-4-amine], the negative-log IC50 (pIC50) is 6.88 at recombinant BRD4 BD1, 5.85 in the experiment with MDA-MB-231 cells and 6.88 at recombinant BRD4 BD2.
Take `COc1cc2c(cc1-c1c(C)nn(C)c1C)[nH]c1ncnc(Nc3cc(C4CC4)nn3C)c12` [Cpd. No. 21, N-(3-Cyclopropyl-1-methyl-1H-pyrazol-5-yl)-6-methoxy-7-(1,3,5-trimethyl-1H-pyrazol-4-yl)-9H-pyrimido[4,5-b]indol-4-amine]: the negative-log IC50 (pIC50) at recombinant BRD4 BD1 and on recombinant BRD4 BD2 was less than 6.00 in each case.
